Reference: patent US20120329787A1, “FUNGICIDAL PYRANONES AND OXAZINONES” (E.I. DU PONT DE NEMOURS AND COMPANY, priority 2011, published 2012)

Tests used:
Assay type in all cases: in vivo
[1] = test system: Botrytis cinerea; assay: Test A: tomato Botrytis, spray on tomato seedlings the day before inoculation; conditions: 200 ppm test suspension
Method in brief: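 Tomato seedlings sprayed to run-off with compound suspension (200 ppm, ≈500 g/ha; some at 40 ppm) in acetone/water with 250 ppm Trem 014, inoculated next day with Botrytis cinerea spores. Held 48 h saturated at 20 °C, then 3 days at 24 °C; disease rated visually.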

[2] = test system: Alternaria solani; assay: Test B: tomato early blight, spray on tomato seedlings the day before inoculation; conditions: 200 ppm test suspension
Method in brief: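 Tomato seedlings sprayed to run-off with 200 ppm suspension (40 ppm where asterisked), inoculated next day with Alternaria solani spores. Kept 48 h at 27 °C in saturated atmosphere, then 5 days at 20 °C before visual disease rating.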

[3] = test system: Phytophthora infestans; conditions: 200 ppm test suspension; tomato seedlings
[4] = test system: Rhizoctonia solani; assay: Test D: turf brown patch, spray on creeping bent grass seedlings the day before inoculation; conditions: 200 ppm test suspension
Excerpt: General protocol for preparing test suspensions for Tests A-I: the test compounds were first dissolved in acetone in an amount equal to 3% of the final volume and then suspended at the desired concentration (in ppm) in acetone and purified water (50/50 mix by volume) containing 250 ppm of the surfactant Trem® 014 (polyhydric alcohol esters). The resulting test suspensions were then used in Tests A-I. Spraying a 200 ppm test suspension to the point of run-off on the test plants was the equivalent of a rate of 500 g/ha. […] (An asterisk “*” next to the rating value indicates a 40 ppm test suspension was used.) The test suspension was sprayed to the point of run-off on creeping bent grass (Agrostis sp.) seedlings. The following day, the seedlings were inoculated with a bran and mycelial slurry of Rhizoctonia solani (the causal agent of turf brown patch) and incubated in a saturated atmosphere at 27° C. for 48 h, and then moved to a growth chamber at 27° C. for 3 days, after which time disease ratings were made. […] A dash (-) indicates no test results. All results are for 200 ppm except where followed by an asterisk “*”, which indicates a 40 ppm.

[5] = test system: Septoria nodorum; assay: Test E: Septoria glume blotch, spray on wheat seedlings the day before inoculation; conditions: 200 ppm test suspension
Method in brief: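 Compounds in acetone/water (50/50) with 250 ppm Trem 014 surfactant, sprayed to run-off on wheat seedlings the day before Septoria nodorum inoculation. Tested at 200 ppm (equivalent to 500 g/ha) unless marked 40 ppm.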

[6] = test system: Puccinia recondita f. sp. tritici; assay: Test H: wheat leaf rust, spray on wheat seedlings the day before inoculation; conditions: 200 ppm test suspension, sprayed before inoculation
Method in brief: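 Wheat seedlings sprayed to run-off with compound suspensions (acetone/water with surfactant; 200 ppm ≈ 500 g/ha, or 40 ppm), inoculated next day with rust spores. Plants kept 24 h in saturated atmosphere at 20 °C, then 6 days in a 20 °C growth chamber before visual disease rating.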

[7] = test system: Erysiphe graminis f. sp. tritici; assay: Test I: wheat powdery mildew, spray on wheat seedlings the day before inoculation; conditions: 200 ppm test suspension
Method in brief: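 Wheat seedlings sprayed to run-off with compound at 200 ppm (40 ppm where marked; 200 ppm ≈ 500 g/ha) in acetone/water with 250 ppm surfactant. Inoculated next day with E. graminis spore dust; visual disease rating after 7 days at 20° C.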

[8] = test system: Septoria tritici; assay: Test F: wheat leaf blotch, spray on wheat seedlings the day before inoculation; conditions: 200 ppm test suspension
Method in brief: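 Wheat seedlings sprayed to run-off with 200 ppm (≈500 g/ha) or 40 ppm suspension in acetone/water with 250 ppm Trem 014. Next day inoculated with Septoria tritici spores, held 48 h saturated at 24° C, then 19 days at 20° C before visual disease rating.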

[9] = test system: Puccinia recondita f. sp. tritici; assay: Test G: wheat leaf rust, spray on wheat seedlings after inoculation (curative); conditions: 200 ppm test suspension, sprayed after inoculation
Method in brief: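 Curative test: wheat seedlings inoculated with P. recondita spores, held 24 h saturated at 20 °C then 2 days at 20 °C, then sprayed to run-off with compound suspension (200 ppm ≈ 500 g/ha; asterisk = 40 ppm) in acetone/water with 250 ppm surfactant. Visual disease rating after 4 further days at 20 °C.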

| Compound | Test A rating (100 = 100% disease control, 0 = no disease control) [1] | Test B rating (100 = 100% disease control, 0 = no disease control) [2] | Test C rating (100 = 100% disease control, 0 = no disease control) [3] | Test D rating (100 = 100% disease control, 0 = no disease control) [4] | Test E rating (100 = 100% disease control, 0 = no disease control) [5] | Test H rating (100 = 100% disease control, 0 = no disease control) [6] | Test I rating (100 = 100% disease control, 0 = no disease control) [7] | pest or weed control at 200 ppm ([1]; Botrytis cinerea, 120 h, read-out: Test A rating (100 = 100% disease control, 0 = no disease control)) | pest or weed control at 200 ppm ([2]; Alternaria solani, 168 h, read-out: Test B rating (100 = 100% disease control, 0 = no disease control)) | pest or weed control at 200 ppm ([5]; Parastagonospora nodorum, 264 h, read-out: Test E rating (100 = 100% disease control, 0 = no disease control)) | pest or weed control at 200 ppm ([8]; Zymoseptoria tritici, 504 h, read-out: Test F rating (100 = 100% disease control, 0 = no disease control)) | pest or weed control at 200 ppm ([9]; Puccinia recondita, 96 h, read-out: Test G rating (100 = 100% disease control, 0 = no disease control)) | pest or weed control at 200 ppm ([6]; Puccinia recondita, 168 h, read-out: Test H rating (100 = 100% disease control, 0 = no disease control)) | pest or weed control at 200 ppm ([7]; Blumeria graminis, 168 h, read-out: Test I rating (100 = 100% disease control, 0 = no disease control)) | Test F rating (100 = 100% disease control, 0 = no disease control) [8] | Test G rating (100 = 100% disease control, 0 = no disease control) [9] |
| --- | --- | --- | --- | --- | --- | --- | --- | --- | --- | --- | --- | --- | --- | --- | --- | --- |
| Cc1noc(=O)c(-c2c(F)cc(F)cc2F)c1-c1cccc(F)c1 [Compound 5] | 0% | 54% | 0% | 16% | 0% | 0% | 20% | – | – | – | – | – | – | – | – | – |
| Cc1noc(=O)c(-c2c(F)ccc(F)c2F)c1-c1ccc(Cl)cc1 [Compound 6] | 99% | 99% | 0% | 0% | 0% | 41% | 96% | – | – | – | – | – | – | – | – | – |
| Cc1noc(=O)c(-c2c(F)cccc2F)c1-c1ccc(Cl)cc1 [Compound 7] | 100% | 100% | 0% | 75% | 0% | 99% | 100% | – | – | – | – | – | – | – | – | – |
| Cc1noc(=O)c(-c2c(F)cccc2Cl)c1-c1ccc(Cl)cc1 [Compound 8] | 100% | 99% | 0% | 52% | 0% | 98% | 99% | – | – | – | – | – | – | – | – | – |
| Cc1ccc(-c2c(C)noc(=O)c2-c2c(F)cc(F)cc2F)cc1 [Compound 9] | 90% | 46% | 0% | 99% | 0% | 96% | 96% | – | – | – | – | – | – | – | – | – |
| Cc1noc(=O)c(-c2c(F)cc(F)cc2F)c1-c1ccc(Br)cc1 [Compound 10] | 98% | 100% | 0% | 90% | 0% | 95% | 99% | – | – | – | – | – | – | – | – | – |
| Cc1noc(=O)c(-c2c(F)cc(F)cc2F)c1-c1ccc(F)cc1 [Compound 11] | 100% | 99% | 0% | 26% | 64% | 98% | 100% | – | – | – | – | – | – | – | – | – |
| COc1cc(OC)cc(-c2c(-c3c(F)cc(F)cc3F)c(C)oc(=O)c2C)c1 [Compound 55, 4-(3,5-dimethoxyphenyl)-3,6-dimethyl-5-(2,4,6-trifluorophenyl)-2H-pyran-2-one] | – | – | – | – | – | – | – | 77% | 100% | 99% | 100% | 100% | 100% | 100% | – | – |
| COc1cc(OC)cc(-c2cc(=O)oc(C)c2-c2ccc(F)cc2Cl)c1 [Compound 56] | 94% | 99% | – | – | 99% | 100% | 100% | – | – | – | – | – | – | – | 100% | 100% |
